# Reference: PubChem BioAssay (NCI)
# Several values for one entry are separate records, joined by “and”; a condition that tells them apart may be missing. Equal values may be shown once.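 1) Cells in 96-well plates. 2) Compound, 48 h, 5 concentrations. 3) Linear interpolation between surrounding doses. 4) Unreached endpoint = highest concentration. GI50 = concentration required for 50% inhibition of growth. TGI: total growth inhibition.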
# Columns and labels:
# Assay in all cases: NCI-60 cell line screen, 48 h
# HS 578T breast = test system: HS 578T breast
# SF-268 CNS = test system: SF-268 CNS
# SK-MEL-28 melanoma = test system: SK-MEL-28 melanoma
# SW-620 colon = test system: SW-620 colon
# NCI-H522 lung = test system: NCI-H522 lung
# K-562 leukemia = test system: K-562 leukemia
# SR leukemia = test system: SR leukemia
# TK-10 renal = test system: TK-10 renal
# NCI-H226 lung = test system: NCI-H226 lung
# MCF7 breast = test system: MCF7 breast
# OVCAR-8 ovarian = test system: OVCAR-8 ovarian
# NCI-H23 lung = test system: NCI-H23 lung
# CCRF-CEM leukemia = test system: CCRF-CEM leukemia
# NCI-H460 lung = test system: NCI-H460 lung
# SK-OV-3 ovarian = test system: SK-OV-3 ovarian
# SF-539 CNS = test system: SF-539 CNS
# SF-295 CNS = test system: SF-295 CNS
# SNB-75 CNS = test system: SNB-75 CNS
# MOLT-4 leukemia = test system: MOLT-4 leukemia
# SK-MEL-2 melanoma = test system: SK-MEL-2 melanoma
# HCT-116 colon = test system: HCT-116 colon
# OVCAR-3 ovarian = test system: OVCAR-3 ovarian
# OVCAR-5 ovarian = test system: OVCAR-5 ovarian
# HT29 colon = test system: HT29 colon
# UACC-62 melanoma = test system: UACC-62 melanoma
# MDA-MB-231 breast = test system: MDA-MB-231 breast
# IGROV1 ovarian = test system: IGROV1 ovarian
# A549 NSCLC = test system: A549 NSCLC
# LOX IMVI melanoma = test system: LOX IMVI melanoma
# MDA-N = test system: MDA-N
# PC-3 prostate = test system: PC-3 prostate
# ACHN renal = test system: ACHN renal
# RXF 393 renal = test system: RXF 393 renal
# BT-549 breast = test system: BT-549 breast
# KM12 colon = test system: KM12 colon
# NCI/ADR-RES ovarian = test system: NCI/ADR-RES ovarian
# HOP-92 NSCLC = test system: HOP-92 NSCLC
# DU-145 prostate = test system: DU-145 prostate
# HL-60(TB) leukemia = test system: HL-60(TB) leukemia
# SK-MEL-5 melanoma = test system: SK-MEL-5 melanoma
# UACC-257 melanoma = test system: UACC-257 melanoma
# SN12C renal = test system: SN12C renal
# COLO 205 colon = test system: COLO 205 colon
# CAKI-1 renal = test system: CAKI-1 renal
# MALME-3M melanoma = test system: MALME-3M melanoma
# HOP-62 NSCLC = test system: HOP-62 NSCLC
# HCT-15 colon = test system: HCT-15 colon
# EKVX NSCLC = test system: EKVX NSCLC
# HCC-2998 colon = test system: HCC-2998 colon
# MDA-MB-435 = test system: MDA-MB-435
# T-47D breast = test system: T-47D breast
# SNB-19 CNS = test system: SNB-19 CNS
# UO-31 renal = test system: UO-31 renal
# RPMI-8226 leukemia = test system: RPMI-8226 leukemia
# M14 melanoma = test system: M14 melanoma
# OVCAR-4 ovarian = test system: OVCAR-4 ovarian
# U251 CNS = test system: U251 CNS
# A498 renal = test system: A498 renal
# 786-0 renal = test system: 786-0 renal
structure (smiles),measurement,setting,value
CC1=C2O[C@]3(O)C=C2C(=C(O)C1=O)[C@@H]1O[C@H](CC[C@H](C)/C=C(\C)C[C@@H](C)C[C@@H]3C)[C@H](C)[C@H](O)[C@H]1C,TGI,HS 578T breast,1490 nM
same,GI50,SF-268 CNS,303 nM
same,TGI,SF-268 CNS,1140 nM and 892 nM
same,TGI,SK-MEL-28 melanoma,662 nM and 588 nM
same,TGI,SW-620 colon,3470 nM
same,TGI,NCI-H522 lung,321 nM
same,TGI,K-562 leukemia,4870 nM
same,TGI,SR leukemia,4180 nM
same,GI50,TK-10 renal,336 nM
same,TGI,TK-10 renal,372 nM and 1160 nM
same,GI50,NCI-H226 lung,935 nM
same,TGI,NCI-H226 lung,2120 nM and 2390 nM
same,TGI,MCF7 breast,556 nM and 395 nM
same,GI50,OVCAR-8 ovarian,169 nM and 234 nM
same,TGI,OVCAR-8 ovarian,472 nM and 597 nM
same,GI50,NCI-H23 lung,563 nM
same,TGI,NCI-H23 lung,1170 nM and 1880 nM
same,GI50,CCRF-CEM leukemia,33.9 nM
same,TGI,CCRF-CEM leukemia,296 nM
same,GI50,NCI-H460 lung,1420 nM
same,TGI,NCI-H460 lung,1820 nM
same,GI50,SK-OV-3 ovarian,1720 nM
same,TGI,SK-OV-3 ovarian,2130 nM and 3110 nM
same,GI50,SF-539 CNS,240 nM
same,TGI,SF-539 CNS,384 nM and 580 nM
same,GI50,SF-295 CNS,1640 nM
same,TGI,SF-295 CNS,2300 nM and 3110 nM
same,GI50,SNB-75 CNS,603 nM
same,TGI,SNB-75 CNS,897 nM and 1350 nM
same,GI50,MOLT-4 leukemia,174 nM
same,TGI,MOLT-4 leukemia,2340 nM and 688 nM
same,GI50,SK-MEL-2 melanoma,282 nM
same,TGI,SK-MEL-2 melanoma,851 nM and 703 nM
same,GI50,HCT-116 colon,201 nM
same,TGI,HCT-116 colon,486 nM and 436 nM
same,GI50,OVCAR-3 ovarian,187 nM
same,TGI,OVCAR-3 ovarian,355 nM and 394 nM
same,GI50,OVCAR-5 ovarian,767 nM
same,TGI,OVCAR-5 ovarian,3190 nM and 2080 nM
same,GI50,HT29 colon,216 nM
same,TGI,HT29 colon,529 nM and 504 nM
same,GI50,UACC-62 melanoma,356 nM
same,TGI,UACC-62 melanoma,695 nM and 1160 nM
same,GI50,MDA-MB-231 breast,285 nM
same,TGI,MDA-MB-231 breast,352 nM and 830 nM
same,GI50,IGROV1 ovarian,272 nM
same,TGI,IGROV1 ovarian,324 nM and 664 nM
same,GI50,A549 NSCLC,1610 nM
same,TGI,A549 NSCLC,2080 nM and 3390 nM
same,GI50,LOX IMVI melanoma,274 nM
same,TGI,LOX IMVI melanoma,793 nM and 739 nM
same,GI50,MDA-N,204 nM
same,TGI,MDA-N,398 nM and 446 nM
same,TGI,PC-3 prostate,1050 nM and 637 nM
same,GI50,ACHN renal,182 nM
same,TGI,ACHN renal,239 nM and 323 nM
same,TGI,RXF 393 renal,434 nM
same,GI50,BT-549 breast,878 nM
same,TGI,BT-549 breast,863 nM and 2150 nM
same,GI50,KM12 colon,376 nM
same,TGI,KM12 colon,1750 nM and 1270 nM
same,GI50,NCI/ADR-RES ovarian,559 nM
same,TGI,NCI/ADR-RES ovarian,1350 nM and 2680 nM
same,GI50,HOP-92 NSCLC,177 nM
same,TGI,HOP-92 NSCLC,273 nM and 377 nM
same,TGI,DU-145 prostate,1030 nM and 659 nM
same,GI50,HL-60(TB) leukemia,203 nM
same,TGI,HL-60(TB) leukemia,617 nM
same,GI50,SK-MEL-5 melanoma,777 nM
same,TGI,SK-MEL-5 melanoma,1660 nM and 1710 nM
same,GI50,UACC-257 melanoma,412 nM
same,TGI,UACC-257 melanoma,860 nM and 2340 nM
same,GI50,SN12C renal,495 nM
same,TGI,SN12C renal,2150 nM and 1940 nM
same,GI50,COLO 205 colon,165 nM
same,TGI,COLO 205 colon,256 nM and 313 nM
same,GI50,CAKI-1 renal,295 nM
same,TGI,CAKI-1 renal,1660 nM and 780 nM
same,TGI,MALME-3M melanoma,480 nM and 334 nM
same,GI50,HOP-62 NSCLC,1390 nM
same,TGI,HOP-62 NSCLC,709 nM and 3150 nM
same,GI50,HCT-15 colon,180 nM
same,TGI,HCT-15 colon,289 nM and 406 nM
same,TGI,EKVX NSCLC,939 nM and 910 nM
same,GI50,HCC-2998 colon,330 nM
same,TGI,HCC-2998 colon,384 nM and 1160 nM
same,GI50,MDA-MB-435,199 nM
same,TGI,MDA-MB-435,325 nM and 429 nM
same,GI50,T-47D breast,105 nM and 184 nM
same,TGI,T-47D breast,230 nM and 361 nM
same,GI50,SNB-19 CNS,1580 nM
same,TGI,SNB-19 CNS,1980 nM and 3110 nM
same,GI50,UO-31 renal,232 nM
same,TGI,UO-31 renal,548 nM and 654 nM
same,TGI,RPMI-8226 leukemia,378 nM and 582 nM
same,GI50,M14 melanoma,220 nM
same,TGI,M14 melanoma,363 nM and 526 nM
same,GI50,OVCAR-4 ovarian,229 nM
same,TGI,OVCAR-4 ovarian,560 nM and 637 nM
same,GI50,U251 CNS,288 nM
same,TGI,U251 CNS,1160 nM and 752 nM
same,GI50,A498 renal,177 nM
same,TGI,A498 renal,694 nM and 2930 nM
same,GI50,786-0 renal,180 nM
same,TGI,786-0 renal,324 nM and 342 nM
CCOC(=O)/C=C(/C(=O)OCC)n1cc(C)c(=O)n(/C(=C/C(=O)OCC)C(=O)OCC)c1=O,TGI,HS 578T breast,45700 nM
same,TGI,SF-268 CNS,32800 nM
same,TGI,SK-MEL-28 melanoma,5040 nM
same,TGI,SW-620 colon,3030 nM
same,TGI,NCI-H522 lung,1880 nM
same,TGI,K-562 leukemia,3810 nM
same,TGI,SR leukemia,5720 nM
same,TGI,TK-10 renal,4060 nM
same,TGI,NCI-H226 lung,12600 nM
same,TGI,MCF7 breast,5500 nM
same,TGI,OVCAR-8 ovarian,13000 nM
same,TGI,NCI-H23 lung,12900 nM
same,TGI,CCRF-CEM leukemia,1530 nM
same,TGI,NCI-H460 lung,37100 nM
same,TGI,SK-OV-3 ovarian,31500 nM
same,TGI,SF-539 CNS,23500 nM
same,TGI,SF-295 CNS,33500 nM
same,TGI,SNB-75 CNS,24000 nM
same,TGI,MOLT-4 leukemia,5780 nM
same,TGI,SK-MEL-2 melanoma,33000 nM
same,TGI,HCT-116 colon,4880 nM
same,TGI,OVCAR-3 ovarian,7700 nM
same,TGI,OVCAR-5 ovarian,14300 nM
same,TGI,HT29 colon,7720 nM
same,TGI,UACC-62 melanoma,19400 nM
same,TGI,MDA-MB-231 breast,9010 nM
same,TGI,IGROV1 ovarian,17000 nM
same,TGI,A549 NSCLC,31800 nM
same,TGI,LOX IMVI melanoma,7590 nM
same,TGI,MDA-N,13700 nM
same,TGI,PC-3 prostate,12300 nM
same,TGI,ACHN renal,4080 nM
same,TGI,RXF 393 renal,3730 nM
same,TGI,BT-549 breast,15900 nM
same,TGI,KM12 colon,30100 nM
same,TGI,NCI/ADR-RES ovarian,26100 nM
same,TGI,HOP-92 NSCLC,2910 nM
same,TGI,DU-145 prostate,26600 nM
same,TGI,HL-60(TB) leukemia,674 nM
same,TGI,SK-MEL-5 melanoma,20800 nM
same,TGI,UACC-257 melanoma,10900 nM
same,TGI,SN12C renal,8580 nM
same,TGI,COLO 205 colon,2870 nM
same,TGI,CAKI-1 renal,2140 nM
same,TGI,MALME-3M melanoma,4360 nM
same,TGI,HOP-62 NSCLC,43300 nM
same,TGI,HCT-15 colon,4010 nM
same,TGI,EKVX NSCLC,13900 nM
same,TGI,HCC-2998 colon,22100 nM
same,TGI,MDA-MB-435,7760 nM
same,TGI,T-47D breast,7860 nM
same,TGI,SNB-19 CNS,36300 nM
same,TGI,UO-31 renal,10800 nM
same,TGI,RPMI-8226 leukemia,4520 nM
same,TGI,M14 melanoma,6480 nM
same,TGI,OVCAR-4 ovarian,> 22300 nM
same,TGI,U251 CNS,19300 nM
same,TGI,A498 renal,36800 nM
same,TGI,786-0 renal,2560 nM
